# Assay results reported in patent publication US20200150109A1, “MICROTUBULE-TARGETING DRUGS AS IMMUNE CHECKPOINT INHIBITORS AND METHODS OF SCREENING NOVEL IMMUNE CHECKPOINT INHIBITORS FOR THE TREATMENT OF CANCERS AND INFECTIOUS DISEASES” (INSERM (Institut National de la Santé et de la Recherche …, priority 2017, published 2020).
# “Also recorded” adds a separate entry of the source.
# Assays:
# PD-1 protein = assay: Immunoblot of PD-1 protein in CD3+ T lymphocyte cell extracts; assay type: cell-based, human; conditions: CD3+ T lymphocytes cell extracts, treated or not with CI-980; 3 independent experiments
# Method: CD3+T lymphocytes cell extracts, treated or not with CI-980, were analyzed by immunoblots.
# PD-1 mRNA = assay: qRT-PCR of PD-1 mRNA from activated CD3+ T lymphocytes; assay type: cell-based, human; conditions: activated CD3+ T lymphocytes treated or not with CI-980; 3 independent experiments
# LAG3 = assay: Immune checkpoint expression by activated T lymphocytes (flow cytometry), LAG3; assay type: cell-based, human; conditions: CD3+ T lymphocytes activated with anti-CD3/CD28 beads + IL-2; CI-980 10 nM; 3 days
# Method: (§1) CD3+ T lymphocyes were activated with anti-CD3/CD28 antibodies-coated beads plus IL-2, in the presence or absence of CI-980 (10 nM), and immune checkpoint expression were assessed by flow cytometry 3 days later.
# (§2) PBMC isolated from healthy donors were activated with CD3/CD28 antibodies-coated beads (ThermoFisher) and IL-2 (100 IU/ml) in the presence of the specified concentration of the tested drug. In the example (FIG. 1), these drugs include CI-980 (so-called NSC 613862 or mivobulin) (10 nM, or 1 nM and 0.1 nM as indicated in Figures), Combretastatin-A4 (CBT-A4), (100 nM), Colchicine (100 nM), Indibulin (100 nM), Vincristine (1 μM), Vinblastine (1 μM), Vinflunine (1 μM), Vinorelbine (1 μM), Paclitaxel (1 μM), 13-Lumi(−)-Colchicine (100 nM), Camptothecin (CPT) (1 μM), Triptolide (100 nM), Mitomycin C (1 μM), Aphidicolin (1 μM). After 3 days of in vitro cell culture in complete medium at 37° C. in a humidified atmosphere containing 5% CO2, cells were immunostained for CD3 (BioLegend, clone UCHT1), CD4 (BioLegend, clone RPA-T4), CD8 (BioLegend, clone RPA-T8), CD69 (BioLegend, clone FN50), CD279 (BD Biosciences, clone EH12.1), LAG3 (BioLegend, clone 11C3C65), TIM3 (BioLegend, clone F38-2E2) and CTLA4 (BioLegend, clone BNI3) expression and then analysed for immune checkpoint expression by flow cytometry and gating on the indicated subsets of T or NK cells.
# TIM3 = assay: Immune checkpoint expression by activated T lymphocytes (flow cytometry), TIM3; assay type: cell-based, human; conditions: CD3+ T lymphocytes activated with anti-CD3/CD28 beads + IL-2; CI-980 10 nM; 3 days
# Method: as §1, §2
# CTLA4 = assay: Immune checkpoint expression by activated T lymphocytes (flow cytometry), CTLA4; assay type: cell-based, human; conditions: CD3+ T lymphocytes activated with anti-CD3/CD28 beads + IL-2; CI-980 10 nM; 3 days
# Method: as §1, §2
# Karpas-299 = assay: Cytotoxicity assay, drug-treated activated PBMC against Karpas-299; assay type: cell-based, human; conditions: PBMC activated 3 days with CI-980 10 nM, rinsed, 4 hours with Karpas-299, 2:1 effector-to-target ratio
# Method: (§3) PBMC isolated from healthy donors were activated with anti-CD3/CD28 antibodies-coated beads plus IL-2, in the presence or absence of CI-980 (10 nM). After 3 days, PBMC were rinsed and co-incubated for 4 hours with the PD-L1^+ cancer cell lines Karpas-299 or SU-DHL-1. Specific lysis of the target cell lines was then measured by staining of dying cells with propidium iodide (PI) and flow cytometry analysis.
# (§4) PBMC isolated from healthy donors, used as effector cells, were activated with CD3/CD28 beads and IL-2, in presence or absence of CI-980 (10 nM). Human cancer cell lines-expressing PD-L1 karpas-299 and SU-DHL-1 were used as targets cells. Prior to be mixed with the effector cells, target cells were labelled with CellTrace-Violet (ThermoFisher) in order to distinguish them from the effector cells. After 3 days, effector cells were rinsed and combined with target cells at a 2:1 effector-to-target ratio. Cells were incubated during 4 hours at 37° C. and specific lysis were analysed by flow cytometry. The percentage of lysis was determined as percent of cells positive for both propidium iodide (PI) and CellTrace-Violet versus cells positive for CellTrace-Violet.
# SU-DHL-1 = assay: Cytotoxicity assay, drug-treated activated PBMC against SU-DHL-1; assay type: cell-based, human; conditions: PBMC activated 3 days with CI-980 10 nM, rinsed, 4 hours with SU-DHL-1, 2:1 effector-to-target ratio
# Method: as §3, §4
# PD-1 (CD279) = assay: Cell-based test of PD-1 cell surface expression by activated T lymphocytes (flow cytometry); set-up: species or system human; conditions: PBMC activated with CD3/CD28 beads + IL-2, 3 days, drugs at their optimum IC50 for proliferation (CPT, mitomycin C, aphidicolin 1 μM; triptolide, Lumi-colchicine 100 nM)
# Method: Shown are means and standard deviations from more than ten independent experiments, using drugs at their respective optimum IC50 for proliferation.
# as §2
# [1] = target: T1, PD-1 protein (programmed cell death protein 1, endogenous, from activated human CD3+ T lymphocytes) (human, UniProt Q15116 25-288); assay: co-immunoprecipitation with anti-α-tubulin antibody from activated human CD3+ T lymphocyte extract, immunoblot for PD-1
# T1 construct: Endogenous PD-1 in a T lymphocyte cell extract, detected by Western blot with anti-PD-1 (ThermoFisher PA5-20350); also called CD279; PDCD1
# T1 sequence (Q15116 25-288 limits assumed): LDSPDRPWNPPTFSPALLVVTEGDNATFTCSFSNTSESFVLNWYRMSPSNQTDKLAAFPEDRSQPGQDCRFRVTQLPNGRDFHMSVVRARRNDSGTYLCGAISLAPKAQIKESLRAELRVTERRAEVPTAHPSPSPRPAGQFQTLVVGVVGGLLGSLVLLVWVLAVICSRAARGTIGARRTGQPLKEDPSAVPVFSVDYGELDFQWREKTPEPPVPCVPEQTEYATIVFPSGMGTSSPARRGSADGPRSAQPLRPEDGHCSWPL
# Method: FIG. 4: PD-1 protein is not associated with tubulin in T lymphocytes.
# α-tubulin was immunoprecipitated from activated CD3+T lymphocytes isolated from human PBMC of healthy donors using an anti-α-tubulin antibody (Sigma-Aldrich, clone B-5-1-2). Immunoprecipitation control with an anti-PD-1 antibody (ebioscience, clone J116) was also carried out. Immunoprecipitates were subjected to SDS-PAGE, and the co-immunoprecipitated PD-1 was assessed by Western Blot using an anti-PD-1 antibody (ThermoFisher, # PA5-20350).
molecule,measurement,setting,value
CCOC(=O)Nc1cc2c(c(N)n1)N=C(c1ccccc1)[C@H](C)N2 [CI-980],expression of PD-1 protein (immunoblot),PD-1 protein,inhibit expression of PD-1 protein
same,PD-1 mRNA level (qRT-PCR),PD-1 mRNA,increase PD-1 mRNA level
same,expression of LAG3,LAG3,inhibits
same,expression of TIM3,TIM3,inhibits
same,expression of CTLA4,CTLA4,inhibits
same,"cytolytic activity (specific lysis of target cells, PI staining)",Karpas-299,enhance cytolytic activity of immune cells
same,"cytolytic activity (specific lysis of target cells, PI staining)",SU-DHL-1,enhance cytolytic activity of immune cells
C[C@@]1(CO)[C@H](O)CC[C@@]2(C)[C@H]1CC[C@H]1C[C@@H]3C[C@@]12CC[C@]3(O)CO [aphidicolin],PD-1 cell surface expression,PD-1 (CD279),do not inhibit PD-1 expression; also recorded: do not impact PD-1 expression
COC1=C[C@@H]2C3=C([C@@H]2C1=O)[C@@H](NC(C)=O)CCc1cc(OC)c(OC)c(OC)c13 [beta-Lumi(−)-colchicine],PD-1 cell surface expression,PD-1 (CD279),does not affect PD-1 expression
same,PD-1 cell surface expression,PD-1 (CD279); listed as β-Lumi(−)-Colchicine,do not impact PD-1 expression
CC[C@@]1(O)C(=O)OCc2c1cc1n(c2=O)Cc2cc3ccccc3nc2-1 [camptothecin],PD-1 cell surface expression,PD-1 (CD279),do not inhibit PD-1 expression; also recorded: do not impact PD-1 expression
CO[C@@]12[C@H](COC(N)=O)C3=C(C(=O)C(C)=C(N)C3=O)N1C[C@@H]1N[C@@H]12 [mitomycin C],PD-1 cell surface expression,PD-1 (CD279),do not inhibit PD-1 expression; also recorded: do not impact PD-1 expression
CC(C)[C@]12O[C@H]1[C@@H]1O[C@]13[C@]1(O[C@H]1C[C@H]1C4=C(CC[C@@]13C)C(=O)OC4)[C@@H]2O [triptolide],PD-1 cell surface expression,PD-1 (CD279),do not inhibit PD-1 expression; also recorded: do not impact PD-1 expression
"tubulin (endogenous, immunoprecipitated with an anti-α-tubulin antibody from extracts of activated human CD3+ T lymphocytes) (other, Endogenous protein from a cell lysate; also called alpha-tubulin) chain 1: MRECISIHVGQAGVQIGNACWELYCLEHGIQPDGQMPSDKTIGGGDDSFNTFFSETGAGKHVPRAVFVDLEPTVIDEVRTGTYRQLFHPEQLITGKEDAANNYARGHYTIGKEIIDLVLDRIRKLADQCTRLQGFLVFHSFGGGTGSGFTSLLMERLSVDYGKKSKLEFSIYPAPQVSTAVVEPYNSILTTHTTLEHSDCAFMVDNEAIYDICRRNLDIERPTYTNLNRLISQIVSSITASLRFDGALNVDLTEFQTNLVPYPRIHFPLATYAPVISAEKAYHEQLSVADITNACFEPANQMVKCDPGHGKYMACCLLYRGDVVPKDVNAAIATIKTKRTIQFVDWCPTGFKVGINYQPPTVVPGGDLAKVQRAVCMLSNTTAIAEAWARLDHKFDLMYAKRAFVHWYVGEGMEEGEFSEAREDMAALEKDYEEVGVDSVEGEGEEEGEEY chain 2: MREIVHIQAGQCGNQIGAKFWEVISDEHGIDPTGTYHGDSDLQLDRISVYYNEATGGKYVPRAILVDLEPGTMDSVRSGPFGQIFRPDNFVFGQSGAGNNWAKGHYTEGAELVDSVLDVVRKEAESCDCLQGFQLTHSLGGGTGSGMGTLLISKIREEYPDRIMNTFSVVPSPKVSDTVVEPYNATLSVHQLVENTDETYCIDNEALYDICFRTLRLTTPTYGDLNHLVSGTMECVTTCLRFPGQLNADLRKLAVNMVPFPRLHFFMPGFAPLTSRGSQQYRALTVPDLTQQVFDAKNMMAACDPRHGRYLTVAAVFRGRMSMKEVDEQMLNVQNKNSSYFVEWIPNNVKTAVCDIPPRGLKMAVTFIGNSTAIQELFKRISEQFTAMFRRKAFLHWYTGEGMDEMEFTEAESNMNDLVSEYQQYQDATAEEEEDFGEEAEEEA",binding result,[1],no binding
